Data from patent US11713335B2, “Aminocoumarin compounds and methods of their use” (President and Fellows of Harvard College, priority 2018, dated 2023).
Values after ≈ are worked out from the molar mass of the structure shown. Where two headings read alike, the source gives them in different places.

Key:
[1] = test system: WT E. coli; assay: Minimal inhibitory concentration in wild-type E. coli; format: cell-based, Escherichia coli; conditions: wild-type E. coli, 37° C., 16 hours, read-out: MIC (μM) in WT E. coli
Protocol: General Procedure for Determination of Minimal Inhibitory Concentrations
Overnight cultures (5 mL) of bacterial strains were grown in LB media or TSA media (for S. aureus) at 37° C. and with shaking at 220 rpm until saturation. The overnight culture was diluted serially 1:100 (50 μL in 5 mL sterile media) and then 1:100 (250 μL in 25 mL sterile media). The 25 mL of diluted culture was then dispensed to a sterile 96 well plate (Corning #3370). 198 μL of culture were dispensed into row A and 100 μL of this culture were dispensed into rows B-H. Aminocoumarin compound (DMSO stock) were added to the first row and then the row was mixed by pipetting. 100 μL of culture from row A were transferred to row B and the serial dilution continued until the final 100 μL from row H were discarded. The plate was incubated without shaking in a 37° C. for 16 hours and then read by visible light spectrophotometer (Molecular Devices) at 600 nm. The minimal inhibitory concentration (MIC) was determined as the lowest concentration of compound concentration that inhibited the growth of bacteria.

[2] = test system: S. aureus RN4220; assay: Minimal inhibitory concentration, S. aureus RN4220; format: cell-based; conditions: 16 hour minimal inhibitory concentration at 37° C., read-out: MIC (μM) S. aureus RN4220
Outline: (§1)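 Saturated overnight cultures in LB (TSA for S. aureus), grown at 37 °C with shaking, were diluted 1:100 twice and exposed to twofold serial dilutions of compound from DMSO stock. After 16 h static incubation at 37 °C, OD600 was read; MIC is the lowest concentration inhibiting growth, reported in µM.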

[3] = test system: S. aureus MW2; assay: Minimal inhibitory concentration, S. aureus MW2; format: cell-based; conditions: 16 hour minimal inhibitory concentration at 37° C., read-out: MIC (μM) S. aureus MW2 (MRSA)
Outline: as §1

[4] = test system: E. cloacae 13047; assay: Minimal inhibitory concentration, E. cloacae 13047; format: cell-based; conditions: 16 hour minimal inhibitory concentration at 37° C., read-out: MIC (μM) E. cloacae 13047
Outline: as §1

[5] = test system: A. baumannii 19606; assay: Minimal inhibitory concentration, A. baumannii 19606; format: cell-based; conditions: 16 hour minimal inhibitory concentration at 37° C., read-out: MIC (μM) A. baumannii 19606
Outline: as §1

[6] = test system: K. pneumoniae 700721; assay: Minimal inhibitory concentration, K. pneumoniae 700721; format: cell-based; conditions: 16 hour minimal inhibitory concentration at 37° C., read-out: MIC (μM) K. pneumoniae 700721
Outline: as §1

[7] = test system: E. coli MC4100; assay: Minimal inhibitory concentration, E. coli MC4100; format: cell-based; conditions: 16 hour minimal inhibitory concentration at 37° C., read-out: MIC (μM) E. coli MC4100 ara+
Outline: as §1

[8] = test system: E. coli 25922; assay: Minimal inhibitory concentration, E. coli 25922; format: cell-based; conditions: 16 hour minimal inhibitory concentration at 37° C., read-out: MIC (μM) E. coli 25922
Outline: as §1

[9] = Staphylococcus aureus, RN4220, 16 h
[10] = Staphylococcus aureus, MRSA, 16 h
[11] = Acinetobacter baumannii, 19606, 16 h

Row | SMILES | MIC [1] | MIC [2] | MIC [3] | MIC [4] | MIC [5] | MIC [6] | MIC [7] | MIC [8] | MIC ([1]; Escherichia coli) | MIC [2, 9] | MIC [3, 10] | MIC ([4]; Enterobacter cloacae, 13047) | MIC [5, 11] | MIC ([6]; Klebsiella pneumoniae, 700721) | MIC ([7]; Escherichia coli, MC4100, 16 h) | MIC ([8]; Escherichia coli, 25922, 16 h)
1 | CO[C@@H]1[C@@H](OC(N)=O)[C@@H](O)[C@H](Oc2ccc3c(O)c(NC(=O)c4cccc(-c5ccc(OC(F)(F)F)cc5)c4)c(=O)oc3c2C)OC1(C)C [Compound 57] | >300 µM | 1.45 µM (≈ 0.998 µg/mL) | 0.91 µM (≈ 0.627 µg/mL) | >100 µM | 18 µM (≈ 12.4 µg/mL) | >100 µM | >200 µM | >200 µM | – | – | – | – | – | – | – | –
2 | CO[C@@H]1[C@@H](OC(N)=O)[C@@H](O)[C@H](Oc2ccc3c(O)c(NC(=O)c4ccc5ccccc5c4)c(=O)oc3c2C)OC1(C)C [Compound 4] | – | – | – | – | – | – | – | – | > 300 µM | 22 µM (≈ 12.7 µg/mL) | 22 µM (≈ 12.7 µg/mL) | > 100 µM | > 50 µM | > 100 µM | > 200 µM | > 200 µM
3 | CCc1ccc(-c2cccc(C(=O)Nc3c(O)c4ccc(O[C@@H]5OC(C)(C)[C@H](OC)[C@@H](OC(N)=O)[C@H]5O)c(C)c4oc3=O)c2)cc1 [Compound 54] | 40 µM (≈ 25.3 µg/mL) | 0.99 µM (≈ 0.626 µg/mL) | 0.99 µM (≈ 0.626 µg/mL) | >100 µM | 20 µM (≈ 12.7 µg/mL) | 79 µM (≈ 50 µg/mL) | 40 µM (≈ 25.3 µg/mL) | 79 µM (≈ 50 µg/mL) | – | – | – | – | – | – | – | –
4 | CO[C@@H]1[C@@H](OC(N)=O)[C@@H](O)[C@H](Oc2ccc3c(O)c(NC(=O)c4cccc(-c5ccccc5OC(F)(F)F)c4)c(=O)oc3c2C)OC1(C)C [Compound 59] | 40 µM (≈ 27.5 µg/mL) | 9 µM (≈ 6.2 µg/mL) | 5 µM (≈ 3.44 µg/mL) | >100 µM | >50 µM | >100 µM | 40 µM (≈ 27.5 µg/mL) | >200 µM | – | – | – | – | – | – | – | –
5 | COc1cc(C(=O)Nc2c(O)c3ccc(O[C@@H]4OC(C)(C)[C@H](OC)[C@@H](OC(N)=O)[C@H]4O)c(C)c3oc2=O)cc(OC)c1OC [Compound 11] | – | – | – | – | – | – | – | – | > 300 µM | > 100 µM | > 100 µM | > 100 µM | > 50 µM | > 100 µM | > 200 µM | > 200 µM
6 | COc1cccc(-c2cccc(C(=O)Nc3c(O)c4ccc(O[C@@H]5OC(C)(C)[C@H](OC)[C@@H](OC(N)=O)[C@H]5O)c(C)c4oc3=O)c2)c1 [Compound 45] | – | 5 µM (≈ 3.17 µg/mL) | 3 µM (≈ 1.9 µg/mL) | – | >50 µM | – | 89 µM (≈ 56.5 µg/mL) | 79 µM (≈ 50.1 µg/mL) | 89 µM (≈ 56.5 µg/mL) | – | – | > 100 µM | – | > 100 µM | – | –
7 | CO[C@@H]1[C@@H](OC(N)=O)[C@@H](O)[C@H](Oc2ccc3c(O)c(NC(=O)C4CC4)c(=O)oc3c2C)OC1(C)C [Compound 13] | – | – | – | – | – | – | – | – | > 300 µM | > 100 µM | > 100 µM | > 100 µM | > 50 µM | > 100 µM | > 200 µM | > 200 µM
8 | CO[C@@H]1[C@@H](OC(N)=O)[C@@H](O)[C@H](Oc2ccc3c(O)c(NC(=O)C(c4ccccc4)c4ccccc4)c(=O)oc3c2C)OC1(C)C [Compound 5] | – | – | – | – | – | – | – | – | > 300 µM | > 100 µM | 80 µM (≈ 49.5 µg/mL) | > 100 µM | > 50 µM | > 100 µM | > 200 µM | > 200 µM
9 | CO[C@@H]1[C@@H](OC(N)=O)[C@@H](O)[C@H](Oc2ccc3c(O)c(NC(=O)c4cccc(-c5ccc(C(F)(F)F)cc5)c4)c(=O)oc3c2C)OC1(C)C [Compound 55] | >300 µM | 1.49 µM (≈ 1 µg/mL) | 0.93 µM (≈ 0.626 µg/mL) | >100 µM | 37 µM (≈ 24.9 µg/mL) | >100 µM | >200 µM | >200 µM | – | – | – | – | – | – | – | –
